Reference: PMC11964921 (npj Drug Discovery, 2025)
Converted amounts (≈) assume the structure as drawn. Where two headings read alike, the source gives them in different places.

Assays:
[1] = tested on: M. tuberculosis H37Rv Pasteur; assay: MIC determination, agar dilution method; assay type: cell-based
M. tuberculosis Erdman = assay: MIC determination, agar dilution method; assay type: cell-based
[2] = tested on: membranes from M. smegmatis cytochrome bd knockout strain (ΔcydAB); assay type: biochemical; settings: read-out: IC50 oxygen consumption
[3] = tested on: membranes from M. smegmatis wild-type strain MC2155; assay type: biochemical; settings: read-out: IC50 oxygen consumption
[4] = tested on: membranes from M. smegmatis cytochrome bc knockout strain (ΔqcrCAB); assay type: biochemical
[5] = tested on: M. tuberculosis H37Rv-ΔcydAB; assay: microbe, parasite or virus in culture; assay type: cell-based; settings: Mycobacterium tuberculosis; for MIC50: 120 h
[6] = tested on: isolated membranes from M. smegmatis; settings: cited from earlier work
whole cell M. smegmatis = settings: cited from earlier work
[7] = tested on: cytochrome bd knockout strain of M. smegmatis; settings: cited from earlier work
[8] = tested on: isolated membranes from M. tuberculosis; settings: cited from earlier work
[9] = tested on: M. tuberculosis H37Rv-ΔcydAB; design: species or system mouse (Balb/cBy); settings: mouse, in vivo, 25 mg/kg

Compound	MIC ([1]; Mycobacterium tuberculosis, H37Rv reference strain, read-out: MIC) [nM]	MIC ([1]; Mycobacterium tuberculosis, strain H37Rv Pasteur, <1% of inoculum able to grow, read-out: MIC) [ng/mL]	MIC ([1]; strain H37Rv Pasteur, <1% of inoculum able to grow) [ng/mL]	MIC (M. tuberculosis Erdman; Mycobacterium tuberculosis, Erdman reference strain, read-out: MIC) [nM]	MIC (M. tuberculosis Erdman; Mycobacterium tuberculosis, strain Erdman, read-out: MIC) [ng/mL]	MIC (M. tuberculosis Erdman; strain Erdman) [ng/mL]	IC50 [2] [nM]	IC50 [3] [nM]	reduction of activity (oxygen consumption) [4] [%]	MIC50 [5] [nM]	IC50 [6] [nM]	MIC (whole cell M. smegmatis) [nM]	MIC [7]	IC50 [8] [nM]	MIC [5] [nM]	reduction in bacterial load (lungs) [9] [log]
CCc1nc2ccc(Cl)cn2c1C(=O)NCc1ccc(C2CC3(C2)CN(S(=O)(=O)C(F)(F)F)C3)cc1 [JNJ-2901]	> 16	> 8	>8	> 16	> 8	>8	60 ± 26	89 ± 54	20	2.5 ± 0.1 (≈ 1.35 ng/mL)						
CCc1nc2ccc(Cl)cn2c1C(=O)NCc1ccc(N2CCC(c3ccc(OC(F)(F)F)cc3)CC2)cc1 [Q203]										2 ± 0.1 (≈ 1.11 ng/mL)	~20	> 50000	~ 2.5 μM	~20	~2 (≈ 1.11 ng/mL)	
COc1nc2ccc(Br)cc2cc1[C@@H](c1ccccc1)[C@@](O)(CCN(C)C)c1cccc2ccccc12 [bedaquiline, reference compound]																4.6
